# Data as given in US10167262B2, “Herbicidal substituted 3-arylpyrazoles” (FMC CORPORATION, priority 2014, dated 2019).
# How the values were obtained:
# Assay type in all cases: in vivo
# [1] = system: barnyardgrass (Echinochloa crus-galli); test: Test A pre-/postemergence greenhouse herbicide test, visual injury rating 0-100
# Procedure, shortened: (§1)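 Ratings are visual, 0 to 100 relative to untreated plants, taken approximately 10 days post-treatment in the greenhouse. Both preemergence soil and postemergence foliar routes were used with surfactant-containing non-phytotoxic solvent formulations.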
# corn (Zea mays) = test: as above
# Procedure, shortened: as §1
# [2] = system: giant foxtail (Setaria faberii); test: as above
# Procedure, shortened: as §1
# [3] = system: large (Lg) crabgrass (Digitaria sanguinalis); test: as above
# Procedure, shortened: as §1
# [4] = system: morningglory (Ipomoea spp.); test: as above
# Procedure, shortened: as §1
# [5] = system: pigweed (Amaranthus retroflexus); test: as above
# Procedure, shortened: as §1
# [6] = system: velvetleaf (Abutilon theophrasti); test: as above
# Procedure, shortened: as §1
# [7] = system: wheat (Triticum aestivum); test: as above
# Procedure, shortened: as §1
# [8] = system: giant foxtail (Setaria faberii); test: Test C pre-/postemergence greenhouse test, plant response rating 0-100; conditions: Postemergence
# Procedure, shortened: (§2)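 Plants were scored visually against controls 13–15 days after treatment on a 0–100 scale, 100 meaning complete control. Test chemicals, formulated in surfactant-containing non-phytotoxic solvent, went preemergence onto seeds in loam–sand blend or postemergence onto 1- to 4-leaf plants (2–18 cm) grown in peat-based mix.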
# [9] = system: johnsongrass (Sorghum halepense); test: as above; conditions: Postemergence
# Procedure, shortened: as §2
# [10] = system: winter wheat (Triticum aestivum); test: as above; conditions: Postemergence
# Procedure, shortened: as §2
# [11] = system: chickweed (common chickweed, Stellaria media); test: Test C postemergence greenhouse test, plant response rating 0-100
# Procedure, shortened: (§3)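 Formulated compounds applied postemergence; plants 1- to 4-leaf stage. Evaluated visually vs. untreated controls after roughly two weeks (13–15 d) under greenhouse conditions; 100 denotes complete control.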
# kochia (Kochia scoparia) = test: as above
# Procedure, shortened: as §3
# wild oat (Avena fatua) = test: as above
# Procedure, shortened: as §3
smiles,measurement,setting,value
O=C(c1ccccc1)c1cn(S(=O)(=O)CCl)nc1-c1cc(Cl)cc(Cl)c1 [Compound 1],"Plant response rating (0 to 100 scale), Barnyardgrass","[1]; Postemergence, 125 g ai/ha",0
same,"Plant response rating (0 to 100 scale), Barnyardgrass","[1]; Postemergence, 500 g ai/ha",0
same,"Barnyardgrass plant response rating (0 = no effect, 100 = complete control)","[1]; Preemergence, 125 g ai/ha",0
same,"Plant response rating (0 to 100 scale), Barnyardgrass","[1]; Preemergence, 500 g ai/ha",0
same,"Plant response rating (0 to 100 scale), Corn","corn (Zea mays); Postemergence, 125 g ai/ha",0
same,"Plant response rating (0 to 100 scale), Corn","corn (Zea mays); Postemergence, 500 g ai/ha",0
same,"Corn plant response rating (0 = no effect, 100 = complete control)","corn (Zea mays); Preemergence, 125 g ai/ha",0
same,"Plant response rating (0 to 100 scale), Corn","corn (Zea mays); Preemergence, 500 g ai/ha",0
same,"Plant response rating (0 to 100 scale), Foxtail, Giant","[2]; Postemergence, 125 g ai/ha",0
same,"Plant response rating (0 to 100 scale), Foxtail, Giant","[2]; Postemergence, 500 g ai/ha",0
same,"Foxtail, Giant plant response rating (0 = no effect, 100 = complete control)","[2]; Preemergence, 125 g ai/ha",0
same,"Plant response rating (0 to 100 scale), Foxtail, Giant","[2]; Preemergence, 500 g ai/ha",0
same,"Plant response rating (0 to 100 scale), Crabgrass, Large","[3]; Postemergence, 125 g ai/ha",0
same,"Plant response rating (0 to 100 scale), Crabgrass, Large","[3]; Postemergence, 500 g ai/ha",0
same,"Crabgrass, Large plant response rating (0 = no effect, 100 = complete control)","[3]; Preemergence, 125 g ai/ha",0
same,"Plant response rating (0 to 100 scale), Crabgrass, Large","[3]; Preemergence, 500 g ai/ha",0
same,"Plant response rating (0 to 100 scale), Morningglory","[4]; Postemergence, 125 g ai/ha",0
same,"Plant response rating (0 to 100 scale), Morningglory","[4]; Postemergence, 500 g ai/ha",0
same,"Morningglory plant response rating (0 = no effect, 100 = complete control)","[4]; Preemergence, 125 g ai/ha",0
same,"Plant response rating (0 to 100 scale), Morningglory","[4]; Preemergence, 500 g ai/ha",0
same,"Plant response rating (0 to 100 scale), Pigweed","[5]; Postemergence, 125 g ai/ha",80
same,"Plant response rating (0 to 100 scale), Pigweed","[5]; Postemergence, 500 g ai/ha",90
same,"Pigweed plant response rating (0 = no effect, 100 = complete control)","[5]; Preemergence, 125 g ai/ha",40
same,"Plant response rating (0 to 100 scale), Pigweed","[5]; Preemergence, 500 g ai/ha",80
same,"Plant response rating (0 to 100 scale), Velvetleaf","[6]; Postemergence, 125 g ai/ha",90
same,"Plant response rating (0 to 100 scale), Velvetleaf","[6]; Postemergence, 500 g ai/ha",90
same,"Velvetleaf plant response rating (0 = no effect, 100 = complete control)","[6]; Preemergence, 125 g ai/ha",20
same,"Plant response rating (0 to 100 scale), Velvetleaf","[6]; Preemergence, 500 g ai/ha",20
same,"Plant response rating (0 to 100 scale), Wheat","[7]; Postemergence, 125 g ai/ha",0
same,"Plant response rating (0 to 100 scale), Wheat","[7]; Postemergence, 500 g ai/ha",0
same,"Wheat plant response rating (0 = no effect, 100 = complete control)","[7]; Preemergence, 125 g ai/ha",0
same,"Plant response rating (0 to 100 scale), Wheat","[7]; Preemergence, 500 g ai/ha",0
same,"Plant response rating (0 to 100), Foxtail, Giant",[8]; 31 g ai/ha,0
same,"Plant response rating (0 to 100), Foxtail, Giant",[8]; 62 g ai/ha,0
same,"Plant response rating (0 to 100), Foxtail, Giant",[8]; 125 g ai/ha,0
same,"Plant response rating, Foxtail, Giant","[8]; 250 g ai/ha, scale 0 to 100",0
same,"Plant response rating (0 to 100), Johnsongrass",[9]; 62 g ai/ha,0
same,"Plant response rating (0 to 100), Johnsongrass",[9]; 125 g ai/ha,0
same,"Plant response rating, Johnsongrass","[9]; 250 g ai/ha, scale 0 to 100",0
same,"Plant response rating (0 to 100), Wheat",[10]; 62 g ai/ha,0
same,"Plant response rating (0 to 100), Wheat",[10]; 125 g ai/ha,0
same,"Plant response rating, Wheat","[10]; 250 g ai/ha, scale 0 to 100",0
same,"Plant response rating (0 to 100), Chickweed",[11]; 31 g ai/ha,90
same,"Plant response rating (0 to 100), Chickweed",[11]; 62 g ai/ha,100
same,"Plant response rating (0 to 100), Chickweed",[11]; 125 g ai/ha,100
same,"Plant response rating, Chickweed","[11]; 250 g ai/ha, scale 0 to 100",100
same,"Plant response rating (0 to 100), Kochia",kochia (Kochia scoparia); 62 g ai/ha,80
same,"Plant response rating (0 to 100), Kochia",kochia (Kochia scoparia); 125 g ai/ha,85
same,"Plant response rating, Kochia","kochia (Kochia scoparia); 250 g ai/ha, scale 0 to 100",90
same,"Plant response rating (0 to 100), Oat, Wild",wild oat (Avena fatua); 62 g ai/ha,0
same,"Plant response rating (0 to 100), Oat, Wild",wild oat (Avena fatua); 125 g ai/ha,0
same,"Plant response rating, Oat, Wild","wild oat (Avena fatua); 250 g ai/ha, scale 0 to 100",0
